Laboratory results taken from publication PMC8342319, “Predicting blood-to-plasma concentration ratios of drugs from chemical structures and volumes of distribution in humans” (Molecular Diversity, 2021).
Where two headings read alike, the source gives them in different places.

Experiments:
[1] = human, intravenous, cited from earlier work
[2] = system: plasma protein; details: cited from earlier work; for fp_Human (free fraction in plasma): human, collected value, ref: Table S1
[3] = human
[4] = human, cited from earlier work
[5] = human, cited from earlier work; for Rb_Human: blood-to-plasma concentration ratio, median if multiple values reported, Reference of Table S1
[6] = median if multiple values reported, Reference of Table S1
[7] = free fraction in human plasma, median if multiple values reported, Reference of Table S1
[8] = intravenous, median if multiple values reported, Reference of Table S1
[9] = median if multiple values were reported, ref numbers in Table S1
[10] = median if multiple values were reported

Compound	in vivo CL_(L/hr/kg)_Human [1, 6]	fp_Human [2, 7]	in vivo MRT_(hr)_Human [3]	in vivo Vd_(L/kg)_Human [4, 8]	Rb_Human [5]	in vivo CL_(L/hr/kg)_Human [1, 9]	fp_Human (free fraction in plasma) [2, 10]	in vivo Vd_(L/kg)_Human ([4]; in vivo, iv)	Rb_Human (blood-to-plasma concentration ratio) [5]	fp_Human ([2]; human plasma free fraction, median if multiple values were reported, ref numbers in Table S1)
CCCNC(C)C(=O)Nc1ccccc1C (centres unmarked) [Prilocaine]	1.740 L/h/kg	0.665	2.126 h	3.700 L/kg	1.25					
CNC(=C[N+](=O)[O-])NCCSCc1ccc(CN(C)C)o1 [Ranitidine]		0.900	2.083 h	1.200 L/kg	1.00					
CO[C@H]1/C=C/O[C@@]2(C)Oc3c(C)c(O)c4c(c3C2=O)C2=NC3(CCN(CC(C)C)CC3)NC2=C(NC(=O)/C(C)=C\C=C\[C@H](C)[C@H](O)[C@@H](C)[C@@H](O)[C@@H](C)[C@H](OC(C)=O)[C@@H]1C)C4=O [Rifabutin]	0.144 L/h/kg	0.290	64.583 h	9.300 L/kg	0.59					
CN(C)CCc1c[nH]c2ccc(Cn3cncn3)cc12 [Rizatriptan]	0.960 L/h/kg	0.860	1.979 h	1.900 L/kg	1.04					
C=CC[N+]1([C@H]2C[C@H]3[C@@H]4CC[C@H]5C[C@H](O)[C@@H](N6CCOCC6)C[C@]5(C)[C@H]4CC[C@]3(C)[C@H]2OC(C)=O)CCCC1 [Rocuronium]	0.239 L/h/kg	0.540	0.946 h	0.210 L/kg	1.00					
CN(c1nc2ccccc2s1)C1CCN(CC(O)COc2ccc(F)cc2)CC1 (centres unmarked) [Sabeluzole]	0.243 L/h/kg	0.012	22.634 h	5.500 L/kg	0.82					
CC(C)NCC(O)c1ccc(NS(C)(=O)=O)cc1 (centres unmarked) [Sotalol]		0.810	10.833 h	1.300 L/kg	1.07					
COc1ccccc1Oc1c(NS(=O)(=O)c2ccc(C(C)C)cn2)nc(-c2ccnc(-c3nnn[nH]3)c2)nc1OCCO [Tezosentan]	0.486 L/h/kg	0.0085		0.280 L/kg	0.60					
CC(C)(C)NC[C@H](O)COc1nsnc1N1CCOCC1 [Timolol]	0.462 L/h/kg	0.491		1.500 L/kg	0.84					
Nc1nc(N)c2nc(-c3ccccc3)c(N)nc2n1 [Triamterene]	3.780 L/h/kg	0.420		13.000 L/kg	1.03					
COc1cc(Cc2cnc(N)nc2N)cc(OC)c1OC [Trimethoprim]		0.500	11.905 h	1.500 L/kg	1.03					
Cc1c(C)c2c(c(C)c1O)CCC(C)(COc1ccc(CC3SC(=O)NC3=O)cc1)O2 (centres unmarked) [Troglitazone]	0.210 L/h/kg	0.00347		0.710 L/kg	0.55					
CCCC(CCC)C(=O)O [Valproic Acid]	0.008 L/h/kg	0.091		0.145 L/kg	0.64					
O=C1Cc2cc(CCN3CCN(c4nsc5ccccc45)CC3)c(Cl)cc2N1 [Ziprasidone]	0.504 L/h/kg	0.0012		1.000 L/kg	0.81					
O=P(O)(O)C(O)(Cn1ccnc1)P(=O)(O)O [Zoledronic Acid]	0.132 L/h/kg	0.780		0.600 L/kg	0.59					
Oc1ccc2c(c1)[C@@]13CCCC[C@@]1(O)[C@@H](C2)N(CC1CCC1)CC3 [butorphanol, reference compound]						2.460 L/h/kg	0.170	12.000 L/kg	1.90	
Isosorbide mononitrate						0.102 L/h/kg	0.850	0.600 L/kg	1.00	0.850
